Key:
CCRF-CEM [1] = assay: Anticancer activity against human CCRF-CEM cells assessed as cell viability at 12.5 uM after 48 hrs by MTT assay; type: functional; details: read-out: Activity
CCRF-CEM [2] = assay: Anticancer activity against human CCRF-CEM cells assessed as cell viability at 50 uM after 48 hrs by MTT assay; type: functional; details: read-out: Activity
[3] = molecular target: Casein kinase II subunit alpha (Homo sapiens) (UniProt P68400); assay: Inhibition of human CK2alpha using RRRDDDSDDD peptide substrate at 200 uM by P81 filter-binding assay; set-up: scale not given: the % may be the effect or the level left
MCF7 [4] = assay: Anticancer activity against human MCF7 cells assessed as cell viability at 50 uM after 48 hrs by MTT assay; type: functional; details: MCF7, 48 h, read-out: Activity
MCF7 [5] = assay: Anticancer activity against human MCF7 cells assessed as cell viability at 12.5 uM after 48 hrs by MTT assay; type: functional; details: MCF7, 48 h, read-out: Activity
MCF7 [6] = assay: Anticancer activity against human MCF7 cells assessed as cell viability at 100 uM after 48 hrs by MTT assay; type: functional; details: MCF7, 48 h, read-out: Activity
MCF7 [7] = assay: Anticancer activity against human MCF7 cells assessed as cell viability at 25 uM after 24 hrs by MTT assay; type: functional; details: MCF7, 24 h, read-out: Activity
CCRF-CEM [8] = assay: Anticancer activity against human CCRF-CEM cells assessed as cell viability at 100 uM after 48 hrs by MTT assay; type: functional; details: read-out: Activity
MCF7 [9] = assay: Anticancer activity against human MCF7 cells assessed as cell viability at 100 uM after 24 hrs by MTT assay; type: functional; details: MCF7, 24 h, read-out: Activity
[10] = molecular target: Casein kinase II subunit alpha (Homo sapiens) (UniProt P68400); assay: Inhibition of human CK2alpha using RRRDDDSDDD peptide substrate at 20 uM by P81 filter-binding assay; set-up: scale not given: the % may be the effect or the level left
CCRF-CEM [11] = assay: Anticancer activity against human CCRF-CEM cells assessed as cell viability at 25 uM after 24 hrs by MTT assay; type: functional; details: read-out: Activity
CCRF-CEM [12] = assay: Anticancer activity against human CCRF-CEM cells assessed as cell viability at 12.5 uM after 24 hrs by MTT assay; type: functional; details: read-out: Activity
MCF7 [13] = assay: Anticancer activity against human MCF7 cells assessed as cell viability at 12.5 uM after 24 hrs by MTT assay; type: functional; details: MCF7, 24 h, read-out: Activity
MCF7 [14] = assay: Anticancer activity against human MCF7 cells assessed as cell viability at 50 uM after 24 hrs by MTT assay; type: functional; details: MCF7, 24 h, read-out: Activity
MCF7 [15] = assay: Anticancer activity against human MCF7 cells assessed as cell viability at 25 uM after 48 hrs by MTT assay; type: functional; details: MCF7, 48 h, read-out: Activity
CCRF-CEM [16] = assay: Anticancer activity against human CCRF-CEM cells assessed as cell viability at 25 uM after 48 hrs by MTT assay; type: functional; details: read-out: Activity
CCRF-CEM [17] = assay: Anticancer activity against human CCRF-CEM cells assessed as cell viability at 50 uM after 24 hrs by MTT assay; type: functional; details: read-out: Activity
CCRF-CEM [18] = assay: Anticancer activity against human CCRF-CEM cells assessed as cell viability at 100 uM after 24 hrs by MTT assay; type: functional; details: read-out: Activity

Chain of Casein kinase II subunit alpha (Homo sapiens) (P68400 whole entry, looked up): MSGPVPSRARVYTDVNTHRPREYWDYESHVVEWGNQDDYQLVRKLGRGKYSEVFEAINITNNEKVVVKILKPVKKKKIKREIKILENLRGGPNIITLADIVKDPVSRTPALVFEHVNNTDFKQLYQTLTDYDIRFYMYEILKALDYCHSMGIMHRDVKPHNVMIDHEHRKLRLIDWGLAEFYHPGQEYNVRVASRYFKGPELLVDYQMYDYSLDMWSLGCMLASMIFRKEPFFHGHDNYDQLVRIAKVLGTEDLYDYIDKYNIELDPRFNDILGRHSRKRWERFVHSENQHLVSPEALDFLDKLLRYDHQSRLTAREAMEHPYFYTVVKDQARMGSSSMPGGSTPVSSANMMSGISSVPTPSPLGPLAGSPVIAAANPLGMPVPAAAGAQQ

Row | SMILES | Activity [3] [%] | Activity [10] [%] | viability at 12.5 µM (CCRF-CEM [1]) [%] | viability at 50 µM (CCRF-CEM [2]) [%] | viability at 50 µM (MCF7 [4]) [%] | viability at 12.5 µM (MCF7 [5]) [%] | viability at 100 µM (MCF7 [6]) [%] | viability at 25 µM (MCF7 [7]) [%] | viability at 100 µM (CCRF-CEM [8]) [%] | viability at 100 µM (MCF7 [9]) [%] | viability at 25 µM (CCRF-CEM [11]) [%] | viability at 12.5 µM (CCRF-CEM [12]) [%] | viability at 12.5 µM (MCF7 [13]) [%] | viability at 50 µM (MCF7 [14]) [%] | viability at 25 µM (MCF7 [15]) [%] | viability at 25 µM (CCRF-CEM [16]) [%] | viability at 50 µM (CCRF-CEM [17]) [%] | viability at 100 µM (CCRF-CEM [18]) [%]
1 | C[C@H](O)Cn1nc2c(Br)c(Br)c(Br)c(Br)c2n1 |  |  | 105 | 58 | 10 | 101 | 8 | 67 | 0 | 25 | 104 | 104 | 119 | 58 | 64 | 92 | 72 | 9
2 | C[C@@H](O)CCn1nc2c(Br)c(Br)c(Br)c(Br)c2n1 |  |  | 94 | 23 | 64 | 86 | 0 | 105 | 24 | 18 | 81 | 88 | 109 | 102 | 77 | 71 | 69 | 36
3 | OC(CCn1nc2c(Br)c(Br)c(Br)c(Br)c2n1)c1ccc(Br)cc1 (stereo not given) | 33.5 | 97.4 | 89 | 0 | 15 | 107 | 0 | 59 | 0 | 0 | 109 | 101 | 82 | 10 | 105 | 69 | 58 | 0
4 | CC(O)Cn1nc2c(Br)c(Br)c(Br)c(Br)c2n1 (racemic) |  |  | 83 | 53 | 16 | 99 | 6 | 96 | 0 | 15 | 102 | 125 | 118 | 60 | 83 | 78 | 108 | 9
5 | COc1cccc(C(O)CCn2nc3c(Br)c(Br)c(Br)c(Br)c3n2)c1 (stereo not given) | 87.5 | 95.1 | 96 | 2 | 20 | 97 | 6 | 71 | 2 | 16 | 106 | 110 | 121 | 22 | 96 | 50 | 58 | 48
6 | CC(O)CCn1nc2c(Br)c(Br)c(Br)c(Br)c2n1 (racemic) |  |  | 94 | 45 | 76 | 79 | 0 | 102 | 0 | 57 | 113 | 106 | 99 | 90 | 73 | 86 | 89 | 3
7 | OCC(O)Cn1nc2c(Br)c(Br)c(Br)c(Br)c2n1 (racemic) |  |  | 60 | 27 | 109 | 116 | 8 | 156 | 1 | 53 | 89 | 78 | 145 | 98 | 111 | 56 | 47 | 8
8 | Brc1c(Br)c(Br)c2[nH]nnc2c1Br [TETRABROMOBENZOTRIAZOLE] |  |  |  |  |  |  |  | 108 |  | 109 | 105 | 115 | 111 | 120 |  |  | 118 | 61
9 | C[C@H](O)CCn1nc2c(Br)c(Br)c(Br)c(Br)c2n1 |  |  | 92 | 42 | 87 | 100 | 6 | 102 | 10 | 31 | 112 | 126 | 112 | 105 | 89 | 89 | 86 | 36

Further lines, with some results ahead:

Row | Activity [3] [%] | Activity [10] [%] | SMILES | viability at 12.5 µM (CCRF-CEM [1]) [%] | viability at 50 µM (CCRF-CEM [2]) [%] | viability at 50 µM (MCF7 [4]) [%] | viability at 12.5 µM (MCF7 [5]) [%] | viability at 100 µM (MCF7 [6]) [%] | viability at 25 µM (MCF7 [7]) [%] | viability at 100 µM (CCRF-CEM [8]) [%] | viability at 100 µM (MCF7 [9]) [%] | viability at 25 µM (CCRF-CEM [11]) [%] | viability at 12.5 µM (CCRF-CEM [12]) [%] | viability at 12.5 µM (MCF7 [13]) [%] | viability at 50 µM (MCF7 [14]) [%] | viability at 25 µM (MCF7 [15]) [%] | viability at 25 µM (CCRF-CEM [16]) [%] | viability at 50 µM (CCRF-CEM [17]) [%] | viability at 100 µM (CCRF-CEM [18]) [%]
10 | 35.4 | 91.4 | OC(CCn1nc2c(Br)c(Br)c(Br)c(Br)c2n1)c1ccc(F)cc1 (stereo not given) | 101 | 0 | 7 | 109 | 0 | 101 | 0 | 0 | 104 | 110 | 116 | 16 | 97 | 88 | 46 | 0
11 | 23.8 | 74.9 | OC(CCn1nc2c(Br)c(Br)c(Br)c(Br)c2n1)c1cccc(Cl)c1 (stereo not given) | 70 | 0 | 12 | 107 | 0.5 | 96 | 0 | 0 | 118 | 110 | 97 | 28 | 101 | 68 | 71 | 0
12 | 43.4 | 96.6 | OC(CCn1nc2c(Br)c(Br)c(Br)c(Br)c2n1)c1cccc(Br)c1 (stereo not given) | 118 | 0 | 11 | 102 | 0 | 52 | 0 | 1 | 123 | 102 | 81 | 14 | 106 | 54 | 54 | 0
13 | 31.1 | 93 | OC(CCn1nc2c(Br)c(Br)c(Br)c(Br)c2n1)c1ccccc1 (racemic) | 89 | 0 | 23 | 113 | 0 | 99 | 0 | 13 | 123 | 122 | 115 | 28 | 105 | 84 | 66 | 21
14 | 45.4 | 95.6 | OC(CCn1nc2c(Br)c(Br)c(Br)c(Br)c2n1)c1ccc(Cl)cc1 (stereo not given) | 93 | 0 | 9 | 100 | 0 | 96 | 0 | 0 | 106 | 105 | 90 | 19 | 92 | 69 | 56 | 0
